Experimental data reported in a melting point compilation (Tetko et al.; mined from patent text by program, amines drawn as free bases though some values may be those of a salt).

Row | melting point | SMILES
1 | 131 to 133 °C | CN(C(=O)OC[C@@]1(C)Cn2cc([N+](=O)[O-])nc2O1)c1ccc(Cl)cc1
2 | 201 to 202 °C | O=c1ccn(-c2cc(Cl)ccc2Cl)[nH]1
3 | 169 to 171 °C | COc1ccc(C(=O)Nc2c(C)c(C)c3c(c2C)C(c2ccc(C)cc2)C(C)(C)O3)cc1OC (centres undefined)
4 | 95 to 100 °C | CCN(CC)C1CCCCC1Oc1ccc(Cc2c(-c3ccc(OCCN4CCCC4)cc3)sc3cc(O)ccc23)cc1 (centres undefined)
5 | 130 to 132 °C | OCCOCCn1ccc2ncnc(Nc3ccc(Oc4cccc(C(F)(F)F)c4)c(Cl)c3)c21
6 | 213 °C | COC(=O)c1sccc1S(=O)(=O)N=C(N)NNc1nc(C)cc(C)n1
7 | 260 to 263 °C | COc1ccc(N2CCN(c3ccc(NC(=O)NN)nc3)CC2)cc1
8 | 112 to 114 °C | C=CCOc1ccc(C2C(=O)Oc3c2cc(C(C)(C)C)cc3C(C)(C)C)cc1 (centres undefined)
9 | 98.6 to 99.3 °C | COc1ccc(-c2cc(C(=O)NCc3ccccn3)c(=O)n(CC3CC3)n2)cc1
10 | 108 to 111 °C | Nc1nc(NC2CCCCC2)nc2c1ncn2C1C=CCCC1 (centres undefined)
11 | 56 to 57 °C | COc1ccc(F)c([C@@H]2C[C@H]2CNC(=O)C(C)C)c1 (relative stereo)
12 | 234 to 235 °C | CS(=O)(=O)c1ccc(Oc2ccc3[nH]c(C4=NCC(CC(=O)NCC(F)(F)F)S4)cc3c2)cn1 (centres undefined)
13 | 100 to 112 °C | COc1ccc(C2(O)CCN(c3ccc(OC)nc3-c3ccc(OC(F)(F)F)cc3)CC2)cc1
14 | 186 to 187 °C | O=C(Cc1ccc(Cl)cc1)N1CCc2cc(S(=O)(=O)N3CCN(c4cccc(Cl)c4)CC3)ccc21
15 | 56 to 58 °C | CCOC(=O)c1c(C)nc(OCC)c2nnn(CC)c12
16 | > 260 °C | NC1=NC(N)(c2ccc(S(=O)(=O)NN3CCOCC3)cc2)NC=N1 (centres undefined)
17 | 306 to 308 °C | O=c1cc(-c2ccc(O)cc2)oc2ccncc12
18 | 129 to 131 °C | C/C(=N\OC(=O)CN(C)C)[C@H]1CC[C@H]2[C@@H]3CCC4=CC(=O)CC[C@]4(C)[C@H]3CC[C@]12C
19 | 172 to 173 °C | O=C1CN(c2cccc(Oc3ccccc3)c2)NC(=O)N1
20 | 155 to 156 °C | CS(=O)(=O)c1ccc(-c2nc(SCc3ccccc3)[nH]c2-c2ccc(F)cc2)cc1
21 | 240 °C | CCCCc1nc(CO)c(S(=O)CC)n1Cc1ccc(-c2ccccc2C(=O)O)cc1 (centres undefined)
22 | 105 to 106 °C | CSc1ccc(C(CC2CCCC2)C(=O)O)cc1C(F)(F)F (centres undefined)
23 | 49 to 50 °C | c1ccc(OCc2ccsc2)cc1
24 | 95 to 96 °C | CCOc1nn(Cc2ccc(OCc3cccc(-c4ccccc4)n3)cc2)cc1CCC(=O)O

Row | melting point | SMILES
25 | 138 °C | Oc1cccc(C2CCCN2Cc2ccncc2)c1 (centres undefined)
26 | 184 to 186 °C | CC(C)OC(=Cn1ccnc1)c1ccc(Cl)cc1Cl
27 | 140 to 141 °C | CCCCN1C(=O)c2cnc(-c3ccccc3)nc2Nc2ccccc21
28 | 180 °C | CCCn1nc(SCCCCCCC(=O)O)c(C(=O)O)c1Cc1cc2c(cc1Cl)OCO2
29 | 165 to 167 °C | O=c1cc(-c2ccccc2)cc2n1CCN2Cc1ccccc1
30 | 95 to 96 °C | COC(=O)C1=C(N)CCC1
31 | 194 to 195 °C | C[C@H]1C(=O)Nc2ccc(Cl)cc2N1C(=O)Cl
32 | 274 to 276 °C | N#Cc1nc(C#N)c(C#N)nc1C#N
33 | 173 to 174 °C | Cc1oc(C2CCCCC2)nc1C(=O)O
34 | 131 to 132 °C | CC(=O)NC1CCc2c(C)cc(C)c(O)c21 (centres undefined)
35 | 145 to 158 °C | CN1CCCCC1=NC(=O)Nc1ccccc1
36 | 76 to 77 °C | COc1c(C(C)=O)cnc2c(N)cccc12
37 | 194 °C | Cc1ccc(C)c(C(=O)c2c(S(C)(=O)=O)nn(-c3c(Cl)cc(C(F)(F)F)cc3Cl)c2N)c1
38 | 160 to 162 °C | CCCc1c(SCCCSc2ccc(-c3nnn[nH]3)cc2)ccc(C(C)=O)c1O
39 | 227 to 228 °C | O=C(Cc1ccc(Oc2ccccc2)cc1)NC1(C(=O)O)Cc2ccc(-c3ccc(Cl)cc3)cc2C1 (centres undefined)
40 | 148 to 150 °C | O=c1cc(-c2ccncc2)nc2n1CCCCC2
41 | 116 °C | Cc1cccc2c(C#N)cn(C)c12
42 | 353 °C | O=C1NC(=O)C(=Cc2ccc(-c3cc(C45CC6CC(CC(C6)C4)C5)c4oc(NC(=O)C(F)(F)F)nc4c3)nc2)S1
43 | 136 to 140 °C | Cc1cc(C)c(N2c3ccccc3Sc3cc(C=O)ccc32)c(C)c1
44 | 149 to 154 °C | CN1C(=O)CC[C@]2(C)c3ccc(Sc4ccc5c([N+](=O)[O-])cccc5n4)cc3CC[C@@H]12
45 | 301 to 302 °C | Cn1c(C(=O)O)cc2c3c(c(-c4ccccc4Cl)cc21)C(=O)NC3=O
46 | 153 °C | CC(=O)OC1CSC(Oc2ccc(-c3cccnc3F)nc2)C(OC(C)=O)C1OC(C)=O (centres undefined)
47 | 118 to 123 °C | Cc1ncc([N+](=O)[O-])n1CCN1C(=O)C2CC=CCC2C1=O (centres undefined)
48 | 198 to 200 °C | O=C(c1ccc(O)cc1)c1sc2cc(O)ccc2c1-c1ccccc1

Row | melting point | SMILES
49 | 176 to 178 °C | Nc1c(Cl)cnnc1Cl
50 | 32 to 34 °C | CCCCCCCCCCCCCCOC(=O)OC1CC(C)(C)N(C)C(C)(C)C1
51 | 207 to 209 °C | C=Cc1ccc(CSc2ccccc2C(=O)O)cc1
52 | 154 °C | CCN1CC[C@H](NC(=O)c2cc(Cl)c(N)c3c2OCCC3)[C@H](OC)C1 (relative stereo)
53 | 105 to 107 °C | CC1(O)OC(=O)C=C1c1ccccc1 (centres undefined)
54 | > 300 °C | Clc1ccc(-c2cnn3cnnc3n2)cc1
55 | 63 to 65 °C | OC[C@H]1O[C@H]1c1ccsc1 (racemic)
56 | 119 to 124 °C | COc1ccc(OCc2ccccn2)c(/C=C/c2cc(/C=C/c3ccc4cc[nH]c4c3)n[nH]2)c1
57 | 203 to 205 °C | COCc1nc2cc3c(cc2[nH]1)NC(=O)C3(C)C
58 | 176 °C | CCC(C(=O)c1ccc(Cl)cc1)n1ncn(-c2ccc(N3CCNCC3)cc2)c1=O (centres undefined)
59 | 71 to 74 °C | Cc1nnc(F)c(-c2c(F)cc(F)cc2F)c1-c1cccs1
60 | 183 to 185 °C | CS(=O)c1nnc2n1C=Cc1cc(Cl)ccc1C2 (centres undefined)
61 | 127 to 130 °C | CCN(CC)CCOC(=O)c1cnc2ccn(-c3ccccc3)n2c1=O
62 | 238 to 242 °C | CCOC(=O)c1n[nH]c2ncc(I)cc2c1=O
63 | 147 to 149 °C | CC(C)(C)CC(C)(C)c1cc(-n2nc3ccc(-c4ccsc4)cc3n2)c(O)c(C(C)(C)c2ccccc2)c1
64 | 104 to 107 °C | O=C(NCCN1CCCCC1)c1ccc(-c2ccc3nnn(Cc4ccc5ncccc5c4)c3n2)cc1
65 | 135 to 139 °C | CCCCC(OC(=O)Nc1ccc(-c2ncn(-c3ccc(OC(F)(F)F)cc3)n2)cc1)C(=O)OCC (centres undefined)
66 | 86 to 88 °C | CC(=O)N(C)C(Cc1ccncc1)C(=O)O (centres undefined)
67 | 141 to 143 °C | Cc1cnc2sc(Sc3ccccc3)nn2c1=O
68 | 142 to 143 °C | CCOCCNS(=O)(=O)NC(=O)OCc1ccc(OCCOC)cc1Oc1ncc(C(F)(F)F)cc1Cl
69 | 144 to 146 °C | O=C(NCCN1CCN(C(c2ccc(F)cc2)c2ccccn2)CC1)C1CSC(c2cccnc2)N1 (centres undefined)
70 | 67 to 68 °C | CS(=O)c1ccc(-c2cn3c(c2-c2ccccc2)CCC3)cc1 (centres undefined)
71 | 197 to 199 °C | O=C(Cc1cccs1)c1c(O)c2cccnc2n(-c2ccccc2)c1=O
72 | > 250 °C | CC(C)n1nc(-c2[nH]c(=O)c(N)nc2-c2ccccc2)ccc1=O

Row | melting point | SMILES
73 | 242 °C | CCNC(=O)Cn1nc(Nc2ccc3c(c2)OC(F)(F)O3)nc1-c1cc(C)nc(C)c1
74 | 122 to 124 °C | CN(C=O)C1c2ccccc2CCc2cc(Cl)ccc21 (centres undefined)
75 | 94 to 95 °C | CC(C)(C)OC(=O)N[C@H](CC(=O)OCc1ccccc1)C(=O)N[C@H](CO)Cc1ccccc1
76 | 62.5 to 63.5 °C | CCOC(=O)C=CC(=O)c1ccc(Cl)cc1
77 | 121 to 122 °C | O=C(NO)c1ccc(CNC(=O)c2[nH]c(-c3ccc(O)cc3)cc2-c2ccsc2)cc1
78 | 203 to 204 °C | CCOC(=O)c1ccc(-c2ccc(-c3ccc(C(F)(F)F)cc3)s2)cc1
79 | 191 °C | CC(C)(C)C(=O)Oc1cccc2c1C(=O)c1c(OC(=O)C(C)(C)C)cccc1C2C(=O)c1ccccc1
80 | 185 to 187 °C | CN[C@@H]1CN(c2nc3c(cc2F)c(=O)c(C(=O)O)cn3C(C)(C)C)[C@H]1C (relative stereo)
81 | 88 to 92 °C | COc1cc(Cl)c(C(=O)c2ccccc2F)c(OC)c1
82 | 80 to 85 °C | c1cc(C2=NOC(C3CC3)(N3CCCC3)C2)ccn1 (centres undefined)
83 | 176 °C | CN1CCC(=C2c3cc(Cl)ccc3CCn3ncnc32)CC1
84 | 81 to 83 °C | Nc1ccccc1COc1ccn(-c2ccc(Cl)cc2)n1
85 | 124 to 136 °C | CCCCCN(CCC12CC3CC(CC(C3)C1)C2)C(=O)NCC(Cc1ccncc1)Cc1ccncc1
86 | 249 °C | N#Cc1nc(N)nc(N)c1-c1ccc(Cl)cc1Cl
87 | 92 to 98 °C | N#CCC(=C(C#N)C#N)c1ccccc1
88 | 148 to 150 °C | Cc1cc(C)c2nc(C)n(Cc3ccc(NCC4CCN(C5CCOCC5)CC4)cc3)c2n1
89 | 225 to 227 °C | CCCc1cc(OCc2ccc(C(=O)O)cc2)c2ccccc2n1
90 | 115 °C | COC(=O)c1c(Oc2cccc(C)c2C)nn(C(=O)OC)c1C
91 | 180 °C | COCCC(=O)N[C@H]1CC[C@H](CCN2CCN(c3nccc4c3OCC4)CC2)CC1
92 | 125 to 128 °C | COc1cccc([C@H]2O[C@H](CC(=O)NCc3ccoc3C(=O)O)C(=O)N(CC(C)(C)CO)c3ccc(Cl)cc32)c1OC
93 | 61 to 62 °C | CC(C)(C)OC(=O)CNNC(=O)OCc1ccccc1

Row | SMILES | melting point
94 | CONc1ccc([N+](=O)[O-])cc1[N+](=O)[O-] | 110 to 112 °C
95 | CCCCCC(C)C(C)c1cc(O)c2c(c1)OC(C)(C)C1=C2CN(CC(N)=O)CC1 (centres undefined) | 165 to 168 °C
96 | CC(=O)Nc1cc(C2=NOC(c3cc(Cl)cc(Cl)c3)(C(F)(F)F)C2)ccc1-n1cncn1 (centres undefined) | 230 to 233 °C
97 | CCOC(=O)c1cc2c3ccccc3n(CCCc3ccccc3)c2c(C)n1 | 101 to 102 °C
98 | CCC(=O)C1(Nc2ccccc2)CCN(CCc2ccccc2)CC1 | 106 °C
99 | CC1(c2cn(-c3c(Cl)cc(C(F)(F)F)cc3Cl)nc2C#N)CC1(Br)Br (centres undefined) | 133 to 134 °C
